Assay results reported in patent US7378397B2 (The Provost, Fellows and Scholars of the College of the …, priority 2000, dated 2008).

Key:
TRH-DE [1] = molecular target: T1, TRH-DE (Sus scrofa, UniProt A0A287AP33); experiment: HPLC assay of peptide hydrolysis by TRH-DE (Glp production); assay type: biochemical, porcine; details: for hydrolysis by TRH-DE (release of Glp): 1 mM peptide incubated with TRH-DE 18 h at 37° C., HPLC
T1 construct: The inventor purified TRH-DE from porcine brain according to purification procedures previously published by Dr. K. Bauer; from tissue; host or cells: porcine brain (TRH-DE); bovine kidney (DPP-IV, gift from Dr. C. H. Williams)
Experimental: The inventor purified TRH-DE from porcine brain according to purification procedures previously published by Dr. K. Bauer, (Max-Planck-Institut, Hannover, Germany) (1). TRH-DE was purified almost 20,000 fold. […] Dipeptidyl peptidase IV (DPP-IV) (EC 3.4.14.5), purified from bovine kidney (7.7 mg ml^−1, specific activity of 17.5 U mg^−1 with Gly-ProAMC as substrate), was obtained as a gilt from Dr. C. H. Williams (Queen's University Belfast, U.K). (DPP-IV was used as the coupling enzyme used in the fluorometric assays).
One unit (U) of enzyme activity was defined as that amount catalysing the formation of one μmol of product in one minute under the standard conditions employed. All incubations in the assays described below were carried out in 20 mM potassium phosphate buffer, pH 7.5, at 37° C.
Kinetic analysis of the peptide library using HPLC—The ability of each peptide in the library to act as a TRH-DE substrate was assessed using HPLC. As an initial screen, 1 mM peptide was incubated with 0.8 μg TRH-DE in a total volume of 1 ml for 18 h at 37° C. Control samples were included in which peptide (1 mM) or Glp (0.2 mM-0.8 mM) were incubated under identical conditions in the absence of TRH-DE. TRH-DE activity was terminated by the addition of TFA (0.15% v/v) and samples were then analysed using HPLC as described previously (24). Products resulting from TRH-DE hydrolysis could be separated on a C-18 reverse-phase column (Hypersil, UK) using a linear gradient of 0-70% acetonitrile in 0.08% (v/v) TFA. The concentration of Glp formed by the action of TRH-DE on the peptide library was measured by UV absorbance at 206 nm with a quantitative detection limit of 0.1 mM for a 40 μl injection volume, employing a signal to noise ratio of 10. Following the incubation of each peptide with TRH-DE, evidence of Glp in the sample was taken to indicate that the peptide was a TRH-DE substrate.
The rates of hydrolysis for each of those peptides identified as substrates were then compared by measuring Gip production using microassays with shorter incubation times. In these assays peptide (1 mM) was incubated at 37° C. in a total volume of 100 μl. 0.8-3.2 μg TRH-DE and incubations times of 5 min to 18 h were used routinely. Measurements were made in triplicate. The rate of TRH-OH hydrolysis was also measured by this method.

Male Wistar rats [2] = experiment: behavioural effects (WDS, locomotion) after i.c.v. administration; assay type: in vivo, rat; details: 30 min
Experimental: Methods: Behavioural studies were conducted using experimentally naïve Male Wistar rats (200-250 g) maintained in a temperature controlled (21° C.), artificially-lighted (12 hr light cycle) room with free access to food and water. Behavioural effects of […] following intra-cerebroventricular (i.c.v.) administration: Animals were implanted with guide cannula aimed at the lateral cerebral ventricles (AP-0.92 mm, ML-1.5 mm, DV-2.6 mm relative to Bregma, atlas of Paxinos & Watson) under halothane anaesthesia. One week following surgery placement of the cannulae was assessed by the ability of a microinjection of angiotensin II (200 ng in 1 μl) to induce drinking behaviour. […] They were then administered either vehicle (1 μl 0.9% saline) or […] (5 μg in 1 μl) followed 1 minute later by vehicle (1 μl 0.9% saline) or TRH (5 μg in 1 μl). One minute after the last i.c.v. injection animals were placed back into the perspex cage and their behaviour monitored by a computer automated tracking system for 30 minutes (Ethovision Pro, Noldus) to provide measures of locomotor activity. Animals were videotaped for subsequent blind analysis of WDS behaviour by a trained observer. A threshold dose of 5 μg TRH was chosen for i.c.v. administration so that if […] enhanced responses to TRH, this would be clearly visible. The statistical significance of differences between behavioural effects of treatments was determined using the Student's t-test or ANOVA, followed by a post-ANOVA test, as indicated. Radioligand binding data were analysed using non-linear curve fitting software (Prism, Graph Pad Software Inc.). IC50 values calculated from competition experiments were converted to Ki values using the Cheng-Prusoff (41) equation Ki=IC50/(1+L/Kd), where L=ligand concentration and Kd=the apparent dissociation constant for [^3[…].

Male Wistar rats [3] = experiment: behavioural effects (activity score, WDS, locomotion) after i.p. administration; assay type: in vivo, rat; details: i.p.
Experimental: Methods: Behavioural studies were conducted using experimentally naïve Male Wistar rats (200-250 g) maintained in a temperature controlled (21° C.), artificially-lighted (12 hr light cycle) room with free access to food and water. Behavioural effects of TRH±TRH-DE inhibitor following intraperitoneal (i.p.) administration: On the day of the experiment, animals were singly housed in perspex cages (30×20×20 cm) and allowed to acclimatize for 20 min. After this period, two baseline measurements of behaviour were made at 10 and 5 min prior to administration of drugs. […] Animals were then observed by two independent observers who were blind to treatment, every 5 min for 30 sec. Blocks of 5 animals were treated at a time, 1 per drug group. Blocks were repeated 5 times. The occurrence of individual behaviours were noted using a behavioural check list, which included grooming, locomotion, rearing, chewing, sniffing, head weave, tail elevation, and/or straub tail and WDS behaviours. These behaviours were summed to yield an overall activity count. Animals were videotaped for separate subsequent analysis of WDS. All WDS behaviours occurring during each 5 min interval after drug administration were counted. The statistical significance of differences between behavioural effects of treatments was determined using the Student's t-test or ANOVA, followed by a post-ANOVA test, as indicated. Radioligand binding data were analysed using non-linear curve fitting software (Prism, Graph Pad Software Inc.). IC50 values calculated from competition experiments were converted to Ki values using the Cheng-Prusoff (41) equation Ki=IC50/(1+L/Kd), where L=ligand concentration and Kd=the apparent dissociation constant for [^3[…].

[4] = molecular target: TRH receptors in rat cortical membranes; experiment: radioligand binding to ^3H-3MeHis-TRH-labelled receptors in rat cortex; details: competition with 6-8 nM ^3H-3MeHis-TRH, Cheng-Prusoff
Experimental: Evaluation of the ability of TRH, Glp-Asn-ProNH2, and Glp-Asn-ProAMC to bind to ^3H-3MeHis-TRH-labelled receptors in rat cortex: Radioligand binding assays were conducted to investigate the possibility that the two TRH-DE inhibitors might exert their effects by acting independently at TRH receptors in the brain.
Cortex tissue from male Sprague-Dawley rats (250 g) was dissected out, weighed and homogenised in 30 volumes of ice-cold sodium phosphate buffer (0.02 M, pH 7.5). The homogenates were centrifuged at 30,000 g at 4° C. for 30 min. The supernatant was discarded and the pellet was resuspended at 100 mg wet wt/ml in buffer containing 177 μM bacitracin. […] Non-specific binding was defined in the presence of 10 μM TRH.
The statistical significance of differences between behavioural effects of treatments was determined using the Student's t-test or ANOVA, followed by a post-ANOVA test, as indicated. Radioligand binding data were analysed using non-linear curve fitting software (Prism, Graph Pad Software Inc.). IC50 values calculated from competition experiments were converted to Ki values using the Cheng-Prusoff (41) equation Ki=IC50/(1+L/Kd), where L=ligand concentration and Kd=the apparent dissociation constant for [^3H]-[3-MeHis]TRH.

TRH-DE [5] = molecular target: T1, TRH-DE; details: From Ref. 23 (inventor's publication); cited from earlier work

T1 sequence (A0A287AP33 1-1066): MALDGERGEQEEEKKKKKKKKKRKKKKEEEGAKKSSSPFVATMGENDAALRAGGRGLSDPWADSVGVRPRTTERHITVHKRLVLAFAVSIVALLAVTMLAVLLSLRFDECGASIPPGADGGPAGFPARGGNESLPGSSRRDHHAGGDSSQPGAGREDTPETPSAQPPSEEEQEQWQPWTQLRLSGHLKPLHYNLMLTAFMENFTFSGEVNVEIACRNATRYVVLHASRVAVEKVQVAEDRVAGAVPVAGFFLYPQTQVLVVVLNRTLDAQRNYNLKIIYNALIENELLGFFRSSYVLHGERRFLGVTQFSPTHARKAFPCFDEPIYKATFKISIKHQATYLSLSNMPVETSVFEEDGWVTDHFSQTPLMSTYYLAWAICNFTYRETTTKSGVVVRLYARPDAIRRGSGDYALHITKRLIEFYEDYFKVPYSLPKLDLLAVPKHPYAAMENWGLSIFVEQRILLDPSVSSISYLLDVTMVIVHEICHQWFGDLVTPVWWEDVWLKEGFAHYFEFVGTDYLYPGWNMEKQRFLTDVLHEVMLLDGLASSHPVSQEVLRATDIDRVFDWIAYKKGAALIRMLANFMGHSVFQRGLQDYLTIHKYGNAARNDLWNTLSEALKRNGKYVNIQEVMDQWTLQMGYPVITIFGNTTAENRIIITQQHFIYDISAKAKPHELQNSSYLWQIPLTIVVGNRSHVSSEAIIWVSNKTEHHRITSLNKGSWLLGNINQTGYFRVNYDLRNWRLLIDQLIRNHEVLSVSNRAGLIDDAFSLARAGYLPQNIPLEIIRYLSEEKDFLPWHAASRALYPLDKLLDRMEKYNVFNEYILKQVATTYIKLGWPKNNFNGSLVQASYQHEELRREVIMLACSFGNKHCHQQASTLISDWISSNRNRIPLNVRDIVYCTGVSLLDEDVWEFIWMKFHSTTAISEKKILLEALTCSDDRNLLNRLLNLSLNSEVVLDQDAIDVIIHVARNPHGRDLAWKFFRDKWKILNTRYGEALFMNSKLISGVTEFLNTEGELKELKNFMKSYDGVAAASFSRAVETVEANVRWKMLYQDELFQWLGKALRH

hydrolysis by TRH-DE (release of Glp) (TRH-DE [1]): degraded fully
hydrolysis by TRH-DE (release of Glp) (TRH-DE [1]; listed as TRH): no TRH (RT 8.566 min) remained
Vmax (TRH-DE [1]; estimated from HPLC rates of hydrolysis using Vmax=vo{(Km+[S])/[S]}): 2.63 ± 0.26 (11) U mg^−1
Rate of hydrolysis (TRH-DE [1]; peptide 1 mM, 37° C., Glp production by HPLC, mean±S.D.): 2.54 ± 0.25 (11) U mg^−1
pKi [4]: 7.65±0.17
Compound: NC(=O)[C@@H]1CCCN1C(=O)[C@H](Cc1cnc[nH]1)NC(=O)[C@@H]1CCC(=O)N1 [Glp-His-ProNH2, L-pyroglutamyl-L-histidyl-L-prolineamide]
number of WDS compared with vehicle (Male Wistar rats [2]; 5 μg alone): Neither TRH nor Glp-Asn-ProAMC alone produced a significantly greater number of WDS than vehicle
number of WDS during the observation period (Male Wistar rats [2]; TRH 5 μg ± Glp-Asn-ProAMC 5 μg, mean±S.E., n=6): 3.33±1.23 WDS/30 min
individual behaviours contributing to the activity score (Male Wistar rats [3]; 10 mg/kg): primarily promoted grooming, sniffing, and chewing behaviours
rat activity scores compared with saline (Male Wistar rats [3]; 10 mg/kg each, 40 min post injection): increase in rat activity scores throughout the 40 min period post injection
decline of behavioural responses with time (Male Wistar rats [3]; 10 mg/kg each, late observation period): tended to decline 35 min after i.p. administration
induction of WDS (Male Wistar rats [3]; 10 mg/kg, 40 min observation): immediate induction of WDS in all animals with the response gradually declining to zero after 40 min
Km (TRH-DE [5]): 35 µM
